Measured values taken from patent US20240041042A1, “1-(PYRIDYL)-5-AZINYLPYRAZOLE DERIVATIVES, AND THEIR USE FOR CONTROL OF UNDESIRED PLANT GROWTH” (Bayer Aktiengesellschaft, priority 2020, published 2024).

Experiments:
Type in all cases: in vivo
[1] = test system: Polygonum convolvulus (POLCO); test: Pre-emergence herbicidal action against POLCO; settings: dosage 320 g/ha
Summary of the method: (§1)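 Seeds sown in pots and covered with soil; WP or EC formulations sprayed onto the soil surface at 600 l/ha water with 0.5% additive, at 320 g/ha or lower. Greenhouse growth for about 3 weeks, then visual scoring as % effect against untreated controls (100% = plants dead).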

Viola tricolor (VIOTR) [2] = test: Post-emergence herbicidal action against VIOTR
Summary of the method: (§2)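 Post-emergence greenhouse spray, one-leaf stage, 600 l/ha water plus 0.5% additive; WP or EC formulations; application rates 320 g/ha or lower. Visual % damage vs untreated controls at ~3 weeks.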

Avena fatua (AVEFA) [3] = test: Pre-emergence herbicidal action against AVEFA; settings: visual scoring after about 3 weeks vs untreated controls
Summary of the method: as §1

[4] = test system: Amaranthus retroflexus (AMARE); test: Post-emergence herbicidal action against AMARE
Summary of the method: as §2

[5] = test system: Amaranthus retroflexus (AMARE); test: Pre-emergence herbicidal action against AMARE; settings: visual scoring after about 3 weeks vs untreated controls
Summary of the method: as §1

Setaria viridis (SETVI) [6] = test: Pre-emergence herbicidal action against SETVI
Summary of the method: as §1

[7] = test system: Verconica persica (VERPE); test: Post-emergence herbicidal action against VERPE
Summary of the method: as §2

Setaria viridis (SETVI) [8] = test: Post-emergence herbicidal action against SETVI
Summary of the method: as §2

Lolium rigidum (LOLRI) [9] = test: Post-emergence herbicidal action against LOLRI
Summary of the method: as §2

Lolium rigidum (LOLRI) [10] = test: Pre-emergence herbicidal action against LOLRI; settings: dosage 320 g/ha
Summary of the method: as §1

[11] = test system: Echinochloa crus-galli (ECHCG); test: Pre-emergence herbicidal action against ECHCG
Summary of the method: as §1

[12] = test system: Abutilon theophrasti (ABUTH); test: Post-emergence herbicidal action against ABUTH; settings: visual rating about 3 weeks after treatment vs untreated controls (100% = plants have died, 0% = like control plants)
Summary of the method: as §2

[13] = test system: Pharbitis purpurea (PHBPU); test: Post-emergence herbicidal action against PHBPU
Summary of the method: as §2

[14] = test system: Echinochloa crus-galli (ECHCG); test: Post-emergence herbicidal action against ECHCG
Summary of the method: as §2

[15] = test system: Matricaria inodora (MATIN); test: Post-emergence herbicidal action against MATIN
Summary of the method: as §2

Avena fatua (AVEFA) [16] = test: Post-emergence herbicidal action against AVEFA; settings: visual rating about 3 weeks after treatment
Summary of the method: as §2

[17] = test system: Matricaria inodora (MATIN); test: Pre-emergence herbicidal action against MATIN
Summary of the method: as §1

[18] = test system: Alopecurus myosuroides (ALOMY); test: Pre-emergence herbicidal action against ALOMY; settings: scored visually after about 3 weeks, 100% = plants have died
Summary of the method: as §1

Viola tricolor (VIOTR) [19] = test: Pre-emergence herbicidal action against VIOTR
Summary of the method: as §1

[20] = test system: Alopecurus myosuroides (ALOMY); test: Post-emergence herbicidal action against ALOMY; settings: visual rating about 3 weeks after treatment vs untreated controls (100% = plants have died, 0% = like control plants)
Summary of the method: as §2

[21] = test system: Polygonum convolvulus (POLCO); test: Post-emergence herbicidal action against POLCO
Summary of the method: as §2

[22] = test system: Pharbitis purpurea (PHBPU); test: Pre-emergence herbicidal action against PHBPU
Summary of the method: as §1

[23] = test system: Verconica persica (VERPE); test: Pre-emergence herbicidal action against VERPE
Summary of the method: as §1

Oryza sativa (ORYSA) = settings: crop plant compatibility, 20 g/ha, effect vs untreated controls
Summary of the method: (§3)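 One-leaf-stage crops (2–3 wk post-sowing, sandy loam, greenhouse) sprayed on green parts; 0.5% additive, 600 l/ha water. Rated by eye ~3 wk later, % vs untreated; suffixes a/b/c mark different dosages.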

Zea mays (ZEAMX) = settings: 20 g/ha, ZEAMX, effect in comparison to untreated controls
Summary of the method: as §3

[24] = 80 g/ha, visual rating about 3 weeks after treatment vs untreated controls (100% = plants have died, 0% = like control plants)

## CCOC(=O)COc1nn(-c2ccccn2)c(-c2ccc(F)nc2)c1Cl [Example I-85]
[1]
  Pre-emergence action against POLCO in %: 100%
Viola tricolor (VIOTR) [2]; 80 g/ha
  Post-emergence action against VIOTR in %: 100%
Viola tricolor (VIOTR) [2]; 320 g/ha
  Post-emergence action against VIOTR in %: 100%
Avena fatua (AVEFA) [3]; 320 g/ha
  Pre-emergence action against AVEFA in %: 90%
[4]; [24]
  Post-emergence action against AMARE in %: 90%
[4]; 320 g/ha, visual rating about 3 weeks after treatment
  Post-emergence action against AMARE in %: 90%
[5]; 80 g/ha
  Pre-emergence action against AMARE in %: 90%
[5]; 320 g/ha
  Pre-emergence action against AMARE in %: 100%
Setaria viridis (SETVI) [6]; dosage 80 g/ha
  Pre-emergence action against SETVI in %: 100%
Setaria viridis (SETVI) [6]; dosage 320 g/ha
  Pre-emergence action against SETVI in %: 100%
[7]; 320 g/ha, VERPE
  Post-emergence action against VERPE in %: 90%
[7]; dosage 80 g/ha
  Post-emergence action against VERPE in %: 90%
Setaria viridis (SETVI) [8]; dosage 80 g/ha
  Post-emergence action against SETVI in %: 90%
Setaria viridis (SETVI) [8]; dosage 320 g/ha
  Post-emergence action against SETVI in %: 100%
Lolium rigidum (LOLRI) [9]; dosage 80 g/ha
  Post-emergence action against LOLRI in %: 100%
Lolium rigidum (LOLRI) [9]; dosage 320 g/ha
  Post-emergence action against LOLRI in %: 100%
Lolium rigidum (LOLRI) [10]
  Pre-emergence action against LOLRI in %: 100%
[11]; dosage 80 g/ha
  Pre-emergence action against ECHCG in %: 100%
[11]; dosage 320 g/ha
  Pre-emergence action against ECHCG in %: 100%
[12]; 80 g/ha
  Post-emergence action against ABUTH in %: 90%
[12]; 320 g/ha
  Post-emergence action against ABUTH in %: 90%
[13]; dosage 80 g/ha
  Post-emergence action against PHBPU in %: 90%
[13]; dosage 320 g/ha
  Post-emergence action against PHBPU in %: 90%
[14]; dosage 80 g/ha
  Post-emergence action against ECHCG in %: 90%
[14]; dosage 320 g/ha
  Post-emergence action against ECHCG in %: 90%
[15]; dosage 80 g/ha
  Post-emergence action against MATIN in %: 80%
[15]; dosage 320 g/ha
  Post-emergence action against MATIN in %: 90%
Avena fatua (AVEFA) [16]; 320 g/ha
  Post-emergence action against AVEFA in %: 100%
[17]; dosage 80 g/ha
  Pre-emergence action against MATIN in %: 100%
[17]; dosage 320 g/ha
  Pre-emergence action against MATIN in %: 100%
[18]; 80 g/ha
  Pre-emergence action against ALOMY: 80%
[18]; 320 g/ha
  Pre-emergence action against ALOMY: 90%
Viola tricolor (VIOTR) [19]; 320 g/ha, Viola tricolor
  Pre-emergence action against VIOTR in %: 100%
Viola tricolor (VIOTR) [19]; dosage 80 g/ha
  Pre-emergence action against VIOTR in %: 100%
[20]; 320 g/ha
  Post-emergence action against ALOMY in %: 100%
[21]; dosage 80 g/ha
  Post-emergence action against POLCO in %: 90%
[21]; dosage 320 g/ha
  Post-emergence action against POLCO in %: 90%
[22]; dosage 80 g/ha
  Pre-emergence action against PHBPU in %: 90%
[22]; dosage 320 g/ha
  Pre-emergence action against PHBPU in %: 100%
[23]; dosage 80 g/ha
  Pre-emergence action against VERPE in %: 100%
[23]; dosage 320 g/ha
  Pre-emergence action against VERPE in %: 100%

## CCOC(=O)COc1nn(-c2ccccn2)c(-c2ccc(F)nc2)c1Cl [Example I-100]
[1]
  Pre-emergence action against POLCO in %: 90%
Avena fatua (AVEFA) [3]; 80 g/ha
  Pre-emergence action against AVEFA in %: 80%
Avena fatua (AVEFA) [3]; 320 g/ha
  Pre-emergence action against AVEFA in %: 90%
[4]; [24]
  Post-emergence action against AMARE in %: 90%
[5]; 80 g/ha
  Pre-emergence action against AMARE in %: 90%
[5]; 320 g/ha
  Pre-emergence action against AMARE in %: 100%
Setaria viridis (SETVI) [6]; dosage 80 g/ha
  Pre-emergence action against SETVI in %: 90%
Setaria viridis (SETVI) [6]; dosage 320 g/ha
  Pre-emergence action against SETVI in %: 100%
[7]; dosage 80 g/ha
  Post-emergence action against VERPE in %: 80%
Setaria viridis (SETVI) [8]; dosage 80 g/ha
  Post-emergence action against SETVI in %: 80%
Lolium rigidum (LOLRI) [9]; dosage 80 g/ha
  Post-emergence action against LOLRI in %: 80%
Lolium rigidum (LOLRI) [10]
  Pre-emergence action against LOLRI in %: 100%
[11]; dosage 80 g/ha
  Pre-emergence action against ECHCG in %: 80%
[11]; dosage 320 g/ha
  Pre-emergence action against ECHCG in %: 100%
[12]; 80 g/ha
  Post-emergence action against ABUTH in %: 80%
[13]; dosage 80 g/ha
  Post-emergence action against PHBPU in %: 90%
Oryza sativa (ORYSA)
  Post-emergence action against ORYSA in %: 0%
Zea mays (ZEAMX)
  Post-emergence action against ZEAMX in % (crop plant compatibility): 10%
[14]; dosage 80 g/ha
  Post-emergence action against ECHCG in %: 90%
[15]; dosage 80 g/ha
  Post-emergence action against MATIN in %: 90%
Avena fatua (AVEFA) [16]; 80 g/ha
  Post-emergence action against AVEFA in %: 100%
[17]; dosage 80 g/ha
  Pre-emergence action against MATIN in %: 80%
[17]; dosage 320 g/ha
  Pre-emergence action against MATIN in %: 80%
[18]; 80 g/ha
  Pre-emergence action against ALOMY: 100%
[18]; 320 g/ha
  Pre-emergence action against ALOMY: 100%
Viola tricolor (VIOTR) [19]; 320 g/ha, Viola tricolor
  Pre-emergence action against VIOTR in %: 90%
[20]; 80 g/ha
  Post-emergence action against ALOMY in %: 100%
[21]; dosage 80 g/ha
  Post-emergence action against POLCO in %: 90%
[22]; dosage 320 g/ha
  Pre-emergence action against PHBPU in %: 90%
[23]; dosage 320 g/ha
  Pre-emergence action against VERPE in %: 100%
